Counter-ions that a name gives are not always drawn.

From BindingDB's records for doi:10.1021/jm950372w (Rotta Research Laboratorium, 1996) come the findings set out here.

The target in assay [1] is Gastrin/cholecystokinin type B receptor (Oryctolagus cuniculus). Put plainly: In vitro inhibition of gastrin-induced [Ca2+] cytosolic elevation in isolated rabbit parietal cells.
Assay [2] concerns the target Gastrin/cholecystokinin type B receptor (Cavia porcellus). Briefly: Inhibition of binding of [3H]N-Me-N-Leu-CCK-8 to cholecystokinin type B receptor in guinea pig brain cortex.

Consider `O=C(O)C[C@H](NC(=O)CCC(NC(=O)c1cc(Cl)cc(Cl)c1)C(=O)N1CCC2(CCCC2)CC1)C(=O)Nc1cccc2ccccc12` (stereo partly drawn) [(S)-3-[5-(8-Aza-spiro[4.5]dec-8-yl)-4-(3,5-dichloro-benzoylamino)-5-oxo-pentanoylamino]-N-naphthalen-1-yl-succinamic acid], for which the IC50 in assay [1] amounted to 19 nM; in assay [2], 215 nM.

Turning to `O=C(O)CC[C@H](NC(=O)CCC(NC(=O)c1cc(Cl)cc(Cl)c1)C(=O)N1CCC2(CCCC2)CC1)C(=O)Nc1cccc2ccccc12` (stereo partly drawn) [(S)-4-[5-(8-Aza-spiro[4.5]dec-8-yl)-4-(3,5-dichloro-benzoylamino)-5-oxo-pentanoylamino]-4-(naphthalen-1-ylcarbamoyl)-butyric acid], the figures for the IC50 in assay [1] and in assay [2] were 7 nM and 20 nM, respectively.

On to `CC(NC(=O)CCC(NC(=O)c1cc(Cl)cc(Cl)c1)C(=O)N1CCC2(CCCC2)CC1)C(=O)O` (stereo unspecified) [2-[5-(8-Aza-spiro[4.5]dec-8-yl)-4-(3,5-dichloro-benzoylamino)-5-oxo-pentanoylamino]-propionic acid], for which the figures for the IC50 in assay [1] and in assay [2] were 994 nM and 1250 nM, respectively.

With `O=C(CCC(NC(=O)c1cc(Cl)cc(Cl)c1)C(=O)N1CCC2(CCCC2)CC1)N[C@H](Cc1c[nH]c2ccccc12)C(=O)O` (stereo partly drawn) [(R)-2-[5-(8-Aza-spiro[4.5]dec-8-yl)-4-(3,5-dichloro-benzoylamino)-5-oxo-pentanoylamino]-3-(1H-indol-3-yl)-propionic acid], the half-inhibitory concentration (IC50) in assay [1] worked out at 9 nM; in assay [2], 40 nM.

As to `CCCN(CCC)C(=O)[C@H](CCC(=O)O)NC(=O)CCC(NC(=O)c1cc(Cl)cc(Cl)c1)C(=O)N1CCC2(CCCC2)CC1` (stereo partly drawn) [(S)-4-[5-(8-Aza-spiro[4.5]dec-8-yl)-4-(3,5-dichloro-benzoylamino)-5-oxo-pentanoylamino]-4-dipropylcarbamoyl-butyric acid], the IC50 in assay [1] came out at 119 nM; in assay [2] it was 299 nM.

For the compound `O=C(CCC(NC(=O)c1cc(Cl)cc(Cl)c1)C(=O)N1CCC2(CCCC2)CC1)NC(Cc1ccc(O)cc1)C(=O)O` (stereo unspecified) [2-[5-(8-Aza-spiro[4.5]dec-8-yl)-4-(3,5-dichloro-benzoylamino)-5-oxo-pentanoylamino]-3-(4-hydroxy-phenyl)-propionic acid], the IC50 in assay [1] stood at 173 nM; in assay [2], 320 nM.

Consider `O=C(O)CNC(=O)CCC(NC(=O)c1cc(Cl)cc(Cl)c1)C(=O)N1CCC2(CCCC2)CC1` (stereo unspecified) [[5-(8-Aza-spiro[4.5]dec-8-yl)-4-(3,5-dichloro-benzoylamino)-5-oxo-pentanoylamino]-acetic acid], for which the figures for the IC50 in assay [1] and in assay [2] were 1040 nM and 1020 nM, respectively.

`O=C(CCC(NC(=O)c1cc(Cl)cc(Cl)c1)C(=O)N1CCC2(CCCC2)CC1)N[C@H](CC1CCCCC1)C(=O)O` (stereo partly drawn) [(R)-2-[5-(8-Aza-spiro[4.5]dec-8-yl)-4-(3,5-dichloro-benzoylamino)-5-oxo-pentanoylamino]-3-cyclohexyl-propionic acid]: the figures for the IC50 in assay [1] and in assay [2] were 142 nM and 612 nM, respectively.

`O=C(O)C[C@@H](NC(=O)CCC(NC(=O)c1cc(Cl)cc(Cl)c1)C(=O)N1CCC2(CCCC2)CC1)C(=O)N1CCC2(CCCC2)CC1` (stereo partly drawn) [(R)-4-(8-Aza-spiro[4.5]dec-8-yl)-3-[5-(8-aza-spiro[4.5]dec-8-yl)-4-(3,5-dichloro-benzoylamino)-5-oxo-pentanoylamino]-4-oxo-butyric acid]: the half-maximal inhibitory concentration (IC50) in assay [1] worked out at 200 nM; in assay [2], 1350 nM.

As for `O=C(CCC(NC(=O)c1cc(Cl)cc(Cl)c1)C(=O)N1CCC2(CCCC2)CC1)N[C@H](Cc1cccc2ccccc12)C(=O)O` (stereo partly drawn) [(R)-2-[5-(8-Aza-spiro[4.5]dec-8-yl)-4-(3,5-dichloro-benzoylamino)-5-oxo-pentanoylamino]-3-naphthalen-1-yl-propionic acid], the IC50 in assay [1] is 9 nM; in assay [2] it was 67 nM.

On to `O=C(O)CC[C@H](NC(=O)CCC(NC(=O)c1cc(Cl)cc(Cl)c1)C(=O)N1CCC2(CCCC2)CC1)C(=O)Nc1cccc2c1CCCC2` (stereo partly drawn) [(S)-4-[5-(8-Aza-spiro[4.5]dec-8-yl)-4-(3,5-dichloro-benzoylamino)-5-oxo-pentanoylamino]-4-(5,6,7,8-tetrahydro-naphthalen-1-ylcarbamoyl)-butyric acid], for which the IC50 was found to be 16 nM in assay [1] and 57 nM in assay [2].

For `O=C(CCC(NC(=O)c1cc(Cl)cc(Cl)c1)C(=O)N1CCC2(CCCC2)CC1)Nc1ccccc1C(=O)O` (stereo unspecified) [2-[5-(8-Aza-spiro[4.5]dec-8-yl)-4-(3,5-dichloro-benzoylamino)-5-oxo-pentanoylamino]-benzoic acid], the values for the IC50 in assay [1] and in assay [2] were 55 nM and 443 nM, respectively.

Regarding `O=C(O)CC[C@@H](NC(=O)CCC(NC(=O)c1cc(Cl)cc(Cl)c1)C(=O)N1CCC2(CCCC2)CC1)C(=O)NCCc1ccccc1` (stereo partly drawn) [(R)-4-[5-(8-Aza-spiro[4.5]dec-8-yl)-4-(3,5-dichloro-benzoylamino)-5-oxo-pentanoylamino]-4-phenethylcarbamoyl-butyric acid], the results for the IC50 in assay [1] and in assay [2] were 398 nM and 1110 nM, respectively.

For `O=C(CCC(NC(=O)c1cc(Cl)cc(Cl)c1)C(=O)N1CCC2(CCCC2)CC1)N[C@H](Cc1ccccn1)C(=O)O` (stereo partly drawn) [(R)-2-[5-(8-Aza-spiro[4.5]dec-8-yl)-4-(3,5-dichloro-benzoylamino)-5-oxo-pentanoylamino]-3-pyridin-2-yl-propionic acid], the IC50 in assay [1] was 307 nM; in assay [2], 155 nM.

On to `O=C(O)CC[C@@H](NC(=O)CCC(NC(=O)c1cc(Cl)cc(Cl)c1)C(=O)N1CCC2(CCCC2)CC1)C(=O)NCc1ccccc1` (stereo partly drawn) [(R)-4-[5-(8-Aza-spiro[4.5]dec-8-yl)-4-(3,5-dichloro-benzoylamino)-5-oxo-pentanoylamino]-4-benzylcarbamoyl-butyric acid], for which the concentration for half-maximal inhibition (IC50) in assay [1] is 38 nM; in assay [2], 427 nM.

Take `O=C(O)CC[C@@H](NC(=O)CCC(NC(=O)c1cc(Cl)cc(Cl)c1)C(=O)N1CCC2(CCCC2)CC1)C(=O)N1CCC2(CCCC2)CC1` (stereo partly drawn) [(R)-5-(8-Aza-spiro[4.5]dec-8-yl)-4-[5-(8-aza-spiro[4.5]dec-8-yl)-4-(3,5-dichloro-benzoylamino)-5-oxo-pentanoylamino]-5-oxo-pentanoic acid]: the IC50 in assay [1] is 206 nM; in assay [2], 1690 nM.

With `CN(Cc1ccccc1)C(=O)C[C@H](NC(=O)CCC(NC(=O)c1cc(Cl)cc(Cl)c1)C(=O)N1CCC2(CCCC2)CC1)C(=O)O` (stereo partly drawn) [(S)-2-[5-(8-Aza-spiro[4.5]dec-8-yl)-4-(3,5-dichloro-benzoylamino)-5-oxo-pentanoylamino]-N-benzyl-N-methyl-succinamic acid], the IC50 in assay [1] was 44 nM; in assay [2], 158 nM.

On to `O=C(O)CC[C@H](NC(=O)CCC(NC(=O)c1cc(Cl)cc(Cl)c1)C(=O)N1CCC2(CCCC2)CC1)C(=O)N1CCC2CCCCC2C1` (stereo partly drawn) [(S)-4-[5-(8-Aza-spiro[4.5]dec-8-yl)-4-(3,5-dichloro-benzoylamino)-5-oxo-pentanoylamino]-5-(octahydro-isoquinolin-2-yl)-5-oxo-pentanoic acid], for which the IC50 in assay [1] worked out at 28 nM; in assay [2], 185 nM.

`O=C(O)CC[C@H](NC(=O)CCC(NC(=O)c1cc(Cl)cc(Cl)c1)C(=O)N1CCC2(CCCC2)CC1)C(=O)Nc1ccc2c(c1)CCC2` (stereo partly drawn) [(S)-4-[5-(8-Aza-spiro[4.5]dec-8-yl)-4-(3,5-dichloro-benzoylamino)-5-oxo-pentanoylamino]-4-(indan-5-ylcarbamoyl)-butyric acid]: the IC50 came out at 118 nM in assay [1] and 727 nM in assay [2].

With `O=C(CC[C@H](NC(=O)CCC(NC(=O)c1cc(Cl)cc(Cl)c1)C(=O)N1CCC2(CCCC2)CC1)C(=O)O)Nc1cccc2ccccc12` (stereo partly drawn) [(S)-2-[5-(8-Aza-spiro[4.5]dec-8-yl)-4-(3,5-dichloro-benzoylamino)-5-oxo-pentanoylamino]-4-(naphthalen-1-ylcarbamoyl)-butyric acid], the results for the IC50 in assay [1] and in assay [2] were 12 nM and 44 nM, respectively.

`O=C(CCC(NC(=O)c1cc(Cl)cc(Cl)c1)C(=O)N1CCC2(CCCC2)CC1)Nc1ccc(C(=O)O)cc1` (stereo unspecified) [4-[5-(8-Aza-spiro[4.5]dec-8-yl)-4-(3,5-dichloro-benzoylamino)-5-oxo-pentanoylamino]-benzoic acid]: the IC50 stood at 568 nM in assay [1] and 1760 nM in assay [2].

With `O=C(CCC(NC(=O)c1cc(Cl)cc(Cl)c1)C(=O)N1CCC2(CCCC2)CC1)NC(Cc1c[nH]c2ccccc12)C(=O)O` (stereo unspecified) [2-[5-(8-Aza-spiro[4.5]dec-8-yl)-4-(3,5-dichloro-benzoylamino)-5-oxo-pentanoylamino]-3-(1H-indol-3-yl)-propionic acid], the values for the IC50 in assay [1] and in assay [2] were 12 nM and 49 nM, respectively.

Consider `O=C(CCC(NC(=O)c1cc(Cl)cc(Cl)c1)C(=O)N1CCC2(CCCC2)CC1)N[C@H](Cc1ccc2ccccc2c1)C(=O)O` (stereo partly drawn) [(R)-2-[5-(8-Aza-spiro[4.5]dec-8-yl)-4-(3,5-dichloro-benzoylamino)-5-oxo-pentanoylamino]-3-naphthalen-2-yl-propionic acid], for which the figures for the IC50 in assay [1] and in assay [2] were 24 nM and 129 nM, respectively.

In the case of `O=C(O)CC[C@H](NC(=O)CCC(NC(=O)c1cc(Cl)cc(Cl)c1)C(=O)N1CCC2(CCCC2)CC1)C(=O)NC1CCCc2ccccc21` (stereo partly drawn) [(S)-4-[5-(8-Aza-spiro[4.5]dec-8-yl)-4-(3,5-dichloro-benzoylamino)-5-oxo-pentanoylamino]-4-(1,2,3,4-tetrahydro-naphthalen-1-ylcarbamoyl)-butyric acid], the values for the IC50 in assay [1] and in assay [2] were 9 nM and 46 nM, respectively.

For the compound `O=C(O)CC[C@H](NC(=O)CCC(NC(=O)c1cc(Cl)cc(Cl)c1)C(=O)N1CCC2(CCCC2)CC1)C(=O)Nc1cccc2ncccc12` (stereo partly drawn) [(S)-4-[5-(8-Aza-spiro[4.5]dec-8-yl)-4-(3,5-dichloro-benzoylamino)-5-oxo-pentanoylamino]-4-(quinolin-5-ylcarbamoyl)-butyric acid; hydrochloride], the values for the IC50 in assay [1] and in assay [2] were 76 nM and 136 nM, respectively.

Compound `O=C(O)CC[C@@H](NC(=O)c1cc(Cl)cc(Cl)c1)C(=O)N1CCC2(CCCC2)CC1` [(R)-5-(8-Aza-spiro[4.5]dec-8-yl)-4-(3,5-dichloro-benzoylamino)-5-oxo-pentanoic acid] gave an IC50 in assay [1] of 1220 nM.
